In ChEMBL document CHEMBL2074494 (Biopharm Drug Dispos, 2004) one finds Activity data, which are given here for 2 molecules.

In the data set the target is ATP-dependent translocase ABCB1 (Homo sapiens, UniProt P08183). The experiment in a line: TP_TRANSPORTER: transepithelial transport in Caco-2 cells. It is filed as functional, cell-based. A general note: Passage across Caco-2 layers is used to estimate intestinal permeability.
Chain of ATP-dependent translocase ABCB1 (P08183 whole entry): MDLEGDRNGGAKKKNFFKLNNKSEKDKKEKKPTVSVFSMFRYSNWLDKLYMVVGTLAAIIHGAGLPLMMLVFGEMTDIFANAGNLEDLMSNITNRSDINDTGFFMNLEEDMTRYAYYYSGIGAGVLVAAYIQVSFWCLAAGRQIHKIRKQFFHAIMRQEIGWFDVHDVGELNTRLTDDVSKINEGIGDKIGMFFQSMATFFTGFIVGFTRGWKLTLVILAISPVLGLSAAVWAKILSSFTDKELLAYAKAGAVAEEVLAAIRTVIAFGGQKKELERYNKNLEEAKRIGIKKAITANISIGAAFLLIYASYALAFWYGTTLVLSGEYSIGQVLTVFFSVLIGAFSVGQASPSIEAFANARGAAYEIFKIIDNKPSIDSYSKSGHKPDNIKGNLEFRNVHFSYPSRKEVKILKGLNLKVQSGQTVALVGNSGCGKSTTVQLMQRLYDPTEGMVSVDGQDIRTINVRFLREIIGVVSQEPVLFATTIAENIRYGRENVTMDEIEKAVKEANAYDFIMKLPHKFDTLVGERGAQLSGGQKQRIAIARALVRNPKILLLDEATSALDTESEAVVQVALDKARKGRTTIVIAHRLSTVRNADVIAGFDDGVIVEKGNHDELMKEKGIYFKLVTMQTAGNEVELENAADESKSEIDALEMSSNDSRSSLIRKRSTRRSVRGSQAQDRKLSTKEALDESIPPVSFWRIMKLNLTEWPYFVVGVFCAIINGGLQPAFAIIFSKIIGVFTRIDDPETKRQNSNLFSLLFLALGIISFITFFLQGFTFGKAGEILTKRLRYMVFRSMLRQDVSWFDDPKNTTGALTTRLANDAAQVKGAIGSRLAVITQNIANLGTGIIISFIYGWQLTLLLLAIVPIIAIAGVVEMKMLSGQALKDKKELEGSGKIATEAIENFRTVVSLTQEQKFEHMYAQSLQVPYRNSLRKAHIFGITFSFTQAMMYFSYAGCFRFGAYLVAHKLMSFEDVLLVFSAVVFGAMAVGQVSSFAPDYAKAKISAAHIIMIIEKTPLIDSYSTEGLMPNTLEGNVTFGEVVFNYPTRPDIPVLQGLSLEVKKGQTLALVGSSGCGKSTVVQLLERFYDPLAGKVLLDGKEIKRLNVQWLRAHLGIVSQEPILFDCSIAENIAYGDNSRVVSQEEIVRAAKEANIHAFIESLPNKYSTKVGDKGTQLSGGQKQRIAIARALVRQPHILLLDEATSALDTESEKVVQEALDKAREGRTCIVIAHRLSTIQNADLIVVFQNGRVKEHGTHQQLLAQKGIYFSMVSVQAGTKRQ

Turning to `CC/C(=C(\c1ccccc1)c1ccc(OCCN)cc1)c1ccccc1` [DESMETHYL TAMOXIFEN], the Activity entry is “is not a substrate [-]”.
For the molecule `CCC(=C(c1ccc(O)cc1)c1ccc(OCCN(C)C)cc1)c1ccccc1`, the Activity result is “is not a substrate [-]”.
